Legend:
[1] = target: T1, Coelenterazine h 2-monooxygenase (Renilla reniformis, UniProt P27652)
T1 sequence (P27652 whole entry): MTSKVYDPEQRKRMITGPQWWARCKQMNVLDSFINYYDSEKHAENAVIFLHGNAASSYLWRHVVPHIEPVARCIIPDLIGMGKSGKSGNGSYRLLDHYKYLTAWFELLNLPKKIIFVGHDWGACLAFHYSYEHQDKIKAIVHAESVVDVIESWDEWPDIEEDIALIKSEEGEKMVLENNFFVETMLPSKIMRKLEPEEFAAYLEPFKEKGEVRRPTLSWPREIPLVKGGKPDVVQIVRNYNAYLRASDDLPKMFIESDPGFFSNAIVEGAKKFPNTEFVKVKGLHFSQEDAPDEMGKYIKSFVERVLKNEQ
Description: GSK_PKIS: Inhibition of Sea Pansy Luciferase (Data from PubChem: AID 652015) [NIH NCATS]

[2] = target: Luciferin 4-monooxygenase (Photinus pyralis, UniProt P08659)
Sequence of Luciferin 4-monooxygenase (P08659 whole entry): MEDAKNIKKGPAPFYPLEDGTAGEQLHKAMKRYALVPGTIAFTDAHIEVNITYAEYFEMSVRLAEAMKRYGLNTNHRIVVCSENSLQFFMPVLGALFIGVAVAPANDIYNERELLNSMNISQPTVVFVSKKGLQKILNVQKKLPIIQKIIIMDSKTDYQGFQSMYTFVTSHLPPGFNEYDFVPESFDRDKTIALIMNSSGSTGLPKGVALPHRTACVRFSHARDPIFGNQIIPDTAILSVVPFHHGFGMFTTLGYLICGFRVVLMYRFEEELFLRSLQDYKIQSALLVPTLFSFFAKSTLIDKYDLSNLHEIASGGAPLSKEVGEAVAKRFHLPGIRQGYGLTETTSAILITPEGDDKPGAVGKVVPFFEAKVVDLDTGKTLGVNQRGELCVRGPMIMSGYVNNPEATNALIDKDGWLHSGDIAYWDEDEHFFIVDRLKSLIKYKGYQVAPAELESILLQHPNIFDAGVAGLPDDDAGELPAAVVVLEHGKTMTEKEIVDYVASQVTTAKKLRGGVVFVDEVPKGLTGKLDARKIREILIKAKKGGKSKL
Description: GSK_PKIS: Inhibition of Firefly Luciferase (Data from PubChem: AID 652016) [NIH NCATS]

| AC50 ([1]; read-out: AC50) | AC50 ([2]; read-out: AC50) | Structure (SMILES) | AC50 [1] | AC50 [2] |
| --- | --- | --- | --- | --- |
| 23.1 µM | 20.6 µM | Cc1ccc(O)cc1Nc1ccnc2cc(-c3ccccn3)ccc12 [GW440139A] |  |  |
|  |  | COc1cc(C)c(N(C)C(=O)CN(C)C)cc1Nc1nc(Nc2cccc(F)c2C(N)=O)c2cc[nH]c2n1 [GSK-2219385A] | Phenotype: Inactive; Curve_Description: None | Phenotype: Inactive; Curve_Description: None |
|  |  | O=C(Nc1n[nH]c2nc(-c3ccco3)ccc12)C1CC1 | Phenotype: Inactive; Curve_Description: None | Phenotype: Inactive; Curve_Description: None |
|  |  | O=C(O)C(F)(F)F.O=C(O[C@H]1CN[C@H](C#Cc2cc3ncnc(Nc4ccc5c(ccn5Cc5cc(F)ccc5F)c4)c3s2)C1)N1CCOCC1 [GSK-259178A] | Phenotype: Inactive; Curve_Description: None | Phenotype: Inactive; Curve_Description: None |
|  |  | CN1CCC(C(=O)Nc2n[nH]c3nnc(-c4ccccc4)cc23)CC1.Cl | Phenotype: Inactive; Curve_Description: None | Phenotype: Inactive; Curve_Description: None |
|  | 20.6 µM | Cc1cc(-c2ccco2)cc(C)c1/C=C/c1cncc(-c2nn[nH]n2)c1.Cl [GW458344A] | Phenotype: Inactive; Curve_Description: None |  |
| 32.6 µM |  | CCCN1CCCC(c2ccc(Nc3nc(Nc4cc(F)ccc4C(N)=O)c4cc[nH]c4n3)c(OC)c2)C1 (stereo not given) [GSK-1173862A] |  | Phenotype: Inactive; Curve_Description: None |
|  |  | CCc1nn2ncccc2c1-c1ccnc(NC2CC2)n1 [GW683768X] | Phenotype: Inactive; Curve_Description: None | Phenotype: Inactive; Curve_Description: None |
| 23.1 µM | 16.3 µM | CNC(=O)c1cncc(/C=C/c2c(Cl)cccc2Cl)c1 [GW445014X] |  |  |
|  | 14.6 µM | COC(=O)Nc1nc2cc(Oc3ccc(NC(=O)Nc4ccccc4)cc3)ccc2[nH]1.Cl [GW694590A] | Phenotype: Inactive; Curve_Description: None |  |
|  |  | Nc1nc(-c2ccc(F)cc2)c(-c2ccc3ncccc3n2)s1 [GW785804X] | Phenotype: Inactive; Curve_Description: None | Phenotype: Inactive; Curve_Description: None |
| 16.3 µM |  | NS(=O)(=O)c1ccc(NC=C2C(=O)Nc3ccc4ncsc4c32)cc1 [GW589933X] |  | Phenotype: Inactive; Curve_Description: None |
|  | 32.6 µM | CN(C)C(=O)O[C@@H]1CN[C@@H](C#Cc2cc3ncnc(Nc4ccc(OCc5cccc(F)c5)c(Cl)c4)c3s2)C1 [GSK-238063A] | Phenotype: Inactive; Curve_Description: None |  |
| 36.6 µM |  | COc1cc2c(cc1Nc1nc(Nc3cccc(F)c3C(N)=O)c3cc[nH]c3n1)N(C(=O)CN1CCN(C(C)C)CC1)CC2 [GSK-1751853A] |  | Phenotype: Inactive; Curve_Description: None |
| 46.1 µM |  | CCCN1CCC=C(c2ccc(Nc3nc(Nc4ccccc4C(N)=O)c4cc[nH]c4n3)c(C)c2)C1 [GSK-994854A] |  | Phenotype: Inactive; Curve_Description: None |
|  |  | COc1cc2ncnc(Nc3ccc4c(cnn4Cc4ccccc4)c3)c2cc1OC.Cl [GW282449A] | Phenotype: Inactive; Curve_Description: None | Phenotype: Inactive; Curve_Description: None |
|  |  | CC(C)c1ccc2c(c1)NC(=O)/C2=N/Nc1ccc(S(N)(=O)=O)cc1 [GW300653X] | Phenotype: Inactive; Curve_Description: None | Phenotype: Inactive; Curve_Description: None |
|  |  | Nc1nonc1-c1nc2cnccc2n1C1CCCCC1 | Phenotype: Inactive; Curve_Description: None | Phenotype: Inactive; Curve_Description: None |
|  | 13 µM | COC(=O)Nc1nc2ccc(Oc3ccc(NC(=O)Nc4cc(C(F)(F)F)ccc4F)cc3)cc2s1.Cl [GW693917A] | Phenotype: Inactive; Curve_Description: None |  |
|  | 41.1 µM | Cc1nnc(-c2ccc(C)c(-c3ccc(C(=O)Nc4cccc(C#N)c4)cc3)c2)o1 [GW607117X] | Phenotype: Inactive; Curve_Description: None |  |
|  |  | CS(=O)(=O)Nc1ccc(-c2cc(-c3ccccc3)cc(C(N)=O)c2N)cc1 [GSK-586581A] | Phenotype: Inactive; Curve_Description: None | Phenotype: Inactive; Curve_Description: None |
| 0.0007 µM |  | COc1ccc2ncnc(Nc3ccc(OCc4ccccc4)cc3)c2c1.Cl |  | Phenotype: Inactive; Curve_Description: None |
|  |  | CC(=O)NCc1cccc(C#Cc2cncnc2Nc2ccc(OCc3cccc(F)c3)c(Cl)c2)c1 [GW807930X] | Phenotype: Inactive; Curve_Description: None | Phenotype: Activator; Curve_Description: None |

| AC50 ([1]; read-out: AC50) | AC50 ([2]; read-out: AC50) | Structure (SMILES) | AC50 [1] | AC50 [2] |
| --- | --- | --- | --- | --- |
|  |  | Fc1ccc(-c2ncn(C3CCNCC3)c2-c2ccnc(Oc3ccc(F)c(F)c3)n2)cc1 | Phenotype: Inactive; Curve_Description: None | Phenotype: Inactive; Curve_Description: None |
|  |  | CCc1nccc2c1nc(-c1nonc1N)n2CC | Phenotype: Inactive; Curve_Description: None | Phenotype: Inactive; Curve_Description: None |
|  | 18.3 µM | Cc1ccc(NC(=O)CC2CC2)cc1-c1ccc(C(=O)NCC2CC2)cc1 [GW796920X] | Phenotype: Inactive; Curve_Description: None |  |
|  | 20.6 µM | Nc1ccc(C#Cc2cncnc2Nc2ccc(OCc3cccc(F)c3)c(Cl)c2)cc1 [GW659893X] | Phenotype: Inactive; Curve_Description: None |  |
|  |  | Cl.O=C(Nc1ccc(Oc2ccc3[nH]c(NC(=O)c4ccccc4)nc3c2)cc1)Nc1cc(C(F)(F)F)ccc1F [GW709042A] | Phenotype: Inactive; Curve_Description: None | Phenotype: Inactive; Curve_Description: None |
|  |  | COc1cc(C=NNc2ncnc3c2cnn3-c2ccccc2)ccc1O [GW513184X] | Phenotype: Inactive; Curve_Description: None | Phenotype: Inactive; Curve_Description: None |
|  | 11.6 µM | Cl.NS(=O)(=O)c1cccc(Nc2cc(-c3ccc(F)cc3)n[nH]2)c1 [GW824645A] | Phenotype: Inactive; Curve_Description: None |  |
|  |  | COc1cccc(/C=N/Nc2ncnc3c2cnn3-c2cccc(OC)c2)c1 [GW829874X] | Phenotype: Inactive; Curve_Description: None | Phenotype: Inactive; Curve_Description: None |
| 46.1 µM |  | COc1cc2c(cc1Nc1nc(Nc3ccsc3C(N)=O)c3cc[nH]c3n1)N(C(=O)CN(C)C)CCC2 [GSK-2110236A] |  | Phenotype: Inactive; Curve_Description: None |
|  |  | Cc1nnc(-c2ccc(C)c(-c3ccc(C(=O)NCc4ccc(Cl)cc4)cc3)c2)o1 [GW708893X] | Phenotype: Inactive; Curve_Description: None | Phenotype: Inactive; Curve_Description: None |
|  |  | COc1ccc(-c2ccncc2)cc1C(N)=O [GSK-605714A] | Phenotype: Inactive; Curve_Description: None | Phenotype: Inactive; Curve_Description: None |
| 18.3 µM | 16.3 µM | c1ccc(Cc2nc3ccc(Nc4ncnc5ccccc45)cc3[nH]2)cc1 |  |  |
| 0.0006 µM |  | COC(=O)Nc1nc2ccc(Sc3ccc(NC(=O)Nc4cc(C(F)(F)F)ccc4F)cc3)cc2[nH]1.O=S(=O)(O)O [GW607049C] |  | Phenotype: Inactive; Curve_Description: None |
| 32.6 µM |  | CCS(=O)(=O)c1ccc(OC)c(Nc2nccc(N(C)c3ccc4c(C)n[nH]c4c3)n2)c1.Cl [GW654652C] |  | Phenotype: Inactive; Curve_Description: None |
|  |  | COC(=O)Nc1nc2ccc(S(=O)(=O)c3ccc(NC(=O)Nc4cc(C(F)(F)F)ccc4F)cc3)cc2[nH]1.Cl [GW680908A] | Phenotype: Inactive; Curve_Description: None | Phenotype: Inactive; Curve_Description: None |
|  |  | COc1ccc(-c2nn3ncccc3c2-c2ccnc(Nc3ccc(F)c(F)c3)n2)cc1 [GW827396X] | Phenotype: Inactive; Curve_Description: None | Phenotype: Inactive; Curve_Description: None |
|  |  | Cc1ccc2c(-c3ccnc(Nc4ccccc4)n3)c(-c3ccc(F)cc3)nn2n1 [GW833373X] | Phenotype: Inactive; Curve_Description: None | Phenotype: Inactive; Curve_Description: None |
|  | 6.51 µM | COc1cccc(-n2ncc3c(N/N=C/c4ccncc4)ncnc32)c1 [GW784752X] | Phenotype: Activator; Curve_Description: None |  |
|  | 3.66 µM | C/C(Nc1ccc(S(N)(=O)=O)cc1)=C1/C(=O)Nc2ccccc21 [GW335962X] | Phenotype: Inactive; Curve_Description: None |  |
| 7.3 µM | 9.19 µM | O=C(NCC1CC1)c1ccc(-c2cccc(C(=O)NC3CC3)c2)cc1 [GW806776X] |  |  |
| 18.3 µM |  | Cc1cccc2c1NC(=O)/C2=N\Nc1ccc(S(N)(=O)=O)cc1 [GW282536X] |  | Phenotype: Inactive; Curve_Description: None |
|  |  | COc1cccc(-n2nc(C)c3c(N/N=C(\C)c4ccncc4)ncnc32)c1 [GW809885X] | Phenotype: Inactive; Curve_Description: None | Phenotype: Inactive; Curve_Description: None |
| 16.3 µM | 18.3 µM | O=C1Nc2ccc(C(=O)c3ccco3)cc2C1=Cc1cc(Cl)c(O)c(Cl)c1 [GW406108X] |  |  |

| Structure (SMILES) | AC50 ([1]; read-out: AC50) | AC50 ([2]; read-out: AC50) | AC50 [1] | AC50 [2] |
| --- | --- | --- | --- | --- |
| Cc1ccc(NC(=O)c2ccoc2)cc1-c1ccc(C(=O)NCC2CC2)cc1 [GW743024X] |  | 41.1 µM | Phenotype: Inactive; Curve_Description: None |  |
| CS(=O)(=O)CCNCc1ccc(-c2ccc3ncnc(Nc4ccc(OCc5ccccc5)cc4)c3c2)o1.Cl [GW458787A] |  | 18.3 µM | Phenotype: Inactive; Curve_Description: None |  |
| NS(=O)(=O)c1ccc(N/N=C2\C(=O)Nc3ccc(C(=O)NCCc4c[nH]cn4)cc32)cc1 [GW300660X] | 16.3 µM |  |  | Phenotype: Inactive; Curve_Description: None |
| O=C(O)C(F)(F)F.O=C(O[C@H]1CN[C@H](C#Cc2cc3ncnc(Nc4ccc(Cc5ccccc5)cc4)c3s2)C1)N1CCOCC1 [GSK-238583A] | 23.1 µM |  |  | Phenotype: Inactive; Curve_Description: None |
